These results are taken from paper PMC9666459, “Crystal structure of semi-synthetic obelin-v after calcium induced bioluminescence implies coelenteramine as the main reaction product” (Scientific Reports, 2022).

Experiment [1] deals with T1, obelin (apo-obelin; obelin-v when charged with CTZ-v) (Obelia longissima, UniProt Q27709).
T1 construct: Ca2+-discharged form; two molecules per asymmetric unit
T1 sequence (Q27709 1-195): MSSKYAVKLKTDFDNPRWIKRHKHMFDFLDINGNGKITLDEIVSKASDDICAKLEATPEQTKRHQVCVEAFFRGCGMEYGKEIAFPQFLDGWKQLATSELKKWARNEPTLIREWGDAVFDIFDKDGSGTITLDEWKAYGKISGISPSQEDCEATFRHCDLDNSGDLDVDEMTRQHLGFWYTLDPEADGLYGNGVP
Nature of the experiment: charging of apo-obelin, Ca2+ discharge, then fluorescence and structure of discharged protein. It counts as biochemical. The note with it: O2, Ca2+; charging overnight with twofold molar excess in 5 mM EDTA, 10 mM DTT, 20 mM Tris-HCl pH 7.2, 4 °C.

Experiment [2] has as its target T1, obelin (apo-obelin; obelin-v when charged with CTZ-v). Nature of the experiment: charging of apo-obelin, Ca2+ discharge, then fluorescence of discharged protein. In kind it is biochemical. The note with it: O2, Ca2+; charging overnight with twofold molar excess in 5 mM EDTA, 10 mM DTT, 20 mM Tris-HCl pH 7.2, 4 °C.

Regarding `O=c1c(Cc2ccc(O)cc2)nc2c(Cc3ccccc3)[nH]c3c4ccc(O)cc4ccc3n1-2` [CTZ-v], in experiment [1], the “charging of apo-obelin, Ca2+ discharge, then fluorescence and structure of disch” value was “apo-obelin was incubated overnight with a twofold molar excess of CTZ or CTZ-v”.

Consider `Oc1ccc(Cc2nc3c(Cc4ccccc4)nc(-c4ccc(O)cc4)cn3c2O)cc1` [CTZ], for which the “charging of apo-obelin, Ca2+ discharge, then fluorescence of discharged protein” value in experiment [2] is recorded as “apo-obelin was incubated overnight with a twofold molar excess of CTZ or CTZ-v”.
